The source of these data is US6656510B2, “Hyperforin derivatives, use thereof and formulations containing them” (Indena S.p.A., priority 1998, dated 2003).

Data set [1] has as its system escape deficit (antidepressive effect). Nature of the data set: escape deficit development test. Format: in vivo. Conditions: rats, 2 week pre-treatment, escapes out of 30 stimuli. As for the experimental part:
In the escape deficit development test, rats are restrained and subjected to mild, short, unavoidable electric shocks for 50 minutes. This is known as the pre-test. 24 hours later, the rats are tested for their ability to avoid the same stimuli on their tails, in a situation where […]. A rat on the average makes 26 escapes out of 30 stimuli (naive controls), whereas a rat subjected to pre-test only makes 1 to 3 escapes (ED controls). […] The compounds of the invention, when administered to rats one hour before their exposure to the unavoidable stress, cause an increase in reactivity to the escape test. This increase in reactivity is enhanced when pre-treatment is effected for 1 to 2 weeks.

The conditions of data set [2]: after only a few weeks; WO 97/13489; cited from earlier work.

For `CC(=O)OC1=C(CC=C(C)C)C(=O)[C@]2(C(=O)C(C)C)C(=O)[C@]1(CC=C(C)C)C[C@H](CC=C(C)C)[C@@]2(C)CCC=C(C)C` [Hyperforin acetate], the “Number of Escapes” value was 12.6 ± 2.8 in data set [1] (6.25 mg/Kg), 17.3 ± 1.9 in data set [1] (12.5 mg/Kg) and 21.2 ± 1.3 in data set [1] (25.0 mg/Kg).

In the case of `CC(C)=CCC[C@]1(C)[C@@H](CC=C(C)C)C[C@@]2(CC=C(C)C)C(=O)[C@]1(C(=O)C(C)C)C(=O)C(CC=C(C)C)=C2O` [hyperforin], in data set [2], the “hyperforin content of a water-alcohol extract of St. Johns wort” value is recorded as “falls almost to zero”.
